“Also recorded” adds a separate entry of the source.
Assays:
[1] = Stability after 24 h; type: physicochemical; conditions: monitored after 24 h
Experimental: Their solubility in assay media was evaluated. (2-Hydroxypropyl)-o-cyclodextrin (Cdx) was used as excipient because of its low toxicity and its capacity to increase bioavailability. […] The compound stability was evaluated in PBS only and in PBS/Cdx.

[2] = test system: Balb/c mice administered LPS; test: LPS-induced mouse model of neutrophilic airway inflammation (COPD); type: in vivo; conditions: 350 μmol/kg i.p. in 1% CMC, 2 h before LPS; lavage 24 h after LPS
Experimental: In vivo effect of a systemic treatment with chalcone-4 or compound (1) in a LPS-induced mouse model of neutrophilic airway inflammation. Balb/c mice were administered intranasally with LPS (1 μg, white block) or saline (control). Chalcone-4 (gray block) or compound (1) (black block) (350 μmol/kg each) suspended in 1% CMC or solvent (CMC alone) were administered intraperitoneally 2 h before LPS. Neutrophil recruitment is shown, inhibited by chalcone 4 and compound (1). Data points are means and bars are S.E.M. values of n=6 determinations.
The in vivo activity of compound (1) was tested in the murine model of neutrophilic airway inflammation induced by lipopolysaccharide (LPS) as previously described (Flacher et al, ACS Chem Biol. 2015, 10:2697-705)^14.
Briefly, Balb/c mice were administered intranasally with LPS (lipopolysaccharide from E. coli, O55B5, 1 μg, Sigma Aldrich) or saline. Treatments with (1) or Chalcone-4 (350 μmol/kg) in 1% CMC (carboxymethylcellulose) were administered by the intraperitoneal route 2 h before LPS instillation. Bronchoalveolar lavage was performed 24 h after LPS, and neutrophil, lymphocyte, eosinophil and macrophage numbers quantified.

[3] = test system: SuHx Wistar rats; test: SU-5416/Hypoxia rat model of pulmonary hypertension; type: in vivo; conditions: 100 mg/kg/day i.p.; for Pulmonary vascular remodeling: H&E and alpha-SMA staining of lung sections; for Total pulmonary vascular resistance (TPVR): curative protocol, vs vehicle-treated SuHx rats
Experimental: FIG. 6A: In vivo effect of chalcone-4 and compound (1) in the SU-5416 (20 mg/kg)/Hypoxia (SuHx) rat model of PH on total pulmonary vascular resistance, cardiac output and right ventricular hypertrophy. Male Wistar rats (100 g upon arrival in the laboratory; Janvier Labs, France) served as experimental subjects. SU-5416 (20 mg/kg) was injected subcutaneously and the rats were placed in normobaric hypoxia (10% FiO2) for 3 weeks for PH to develop, and were then left for 2 weeks in normoxia. Rats were treated either with chalcone-4 or compound (1) at a dose of 100 mg/kg i.p. as compared with vehicle-treated SuHx rats. In addition, a group of healthy rats with no PH were used as the control group (CTR). The total pulmonary vascular resistance (TPVR), cardiac output (CO), right ventricular hypertrophy (RVH) assessed by the Fulton index [right/(left+septum) ventricular weight] were obtained in CTR and SuHx rats treated with chalcone-4 and compound (1). The bar graph represents means SEM. *** p-value <0.001, **** p-value <0.0001 versus CTR rats. # p-value <0.05,### p-value <0.001 versus vehicle-treated SuHx rats.
The activity of compound (1) vs chalcone-4 was evaluated in an animal model of pulmonary hypertension (PH) (by convention, animal models are still referred to as having PH rather than PAH): the SU-5416 (20 mg/Kg)/Hypoxia rat model. Chalcone-4 and compound (1) (100 mg/kg/day) were prepared in carboxymethylcellulose (CMC 1% in saline) and administered I.P. Rats were treated for 3 weeks in a curative protocol, and were then left for 2 weeks in normoxia. An additional group of healthy rats with no PH was used as the control group (CTR).
PH was induced by a single subcutaneous injection of SU5416 (20 mg/kg) in Wistar rats, followed by a 3-week exposure to chronic hypoxia (10% FiO2). Right ventricular structure and function was assessed by echocardiography using the GE Vivid 9 ultrasound. Before treatment begins, echocardiography measurements of each rat have been performed to validate the presence of PH in animals (acceleration time/ejection time). Then, the rats were randomized by numbering the animals from 1 to 4 in each cage at the beginning of the study, and then looking at a random number table. Each rat has been treated by intraperitoneal administration. At the end of the treatment period, a right heart catheterization (RHC) was performed to determine the PH severity and the cardiac function.
Animals were anesthetized with isoflurane. A polyvinyl catheter was introduced into the right jugular vein and pushed through the right ventricle into the pulmonary artery. Cardiac output in rats was measured using the thermodilution method.
After measurement of hemodynamic parameters, the thorax was opened and the left lung immediately removed and frozen. The right lung was fixed in the distended state with formalin buffer. The right ventricular hypertrophy assessed by the Fulton index [weight ratio of right ventricle (RV) and (left ventricle (LV)+septum)] and the percentage of wall thickness [(2× medial wall thickness/external diameter)×100] and of muscularized vessels were determined as previously described^21.
Histological sections were stained with hematoxylin and eosin, and immunohistochemistry for alpha-smooth muscle actin was performed as previously described^1′. Images were taken with a microscope Nikon Eclipse 80i and NIS-Elements BR 2.30 software.

[4] = test system: Balb/c mice topically administered MC903; test: Murine model of atopic dermatitis induced by MC903; type: in vivo, mouse; conditions: 350 μmol/kg topical in acetone/olive oil, 2 h before each MC903 application, D1-D13
Experimental: FIG. 2A. In vivo effect of a topical treatment with chalcone 4 and compound (1). Mouse ears were treated with MC903 (calcipotriol, 2 nmol/ear or 4 nmol/ear) or its solvent (ethanol EtOH) together with 350 μmol/kg chalcone 4 (upper row of images) or compound (1) (lower row of images) or solvent (acetone/olive oil 50/50, AOO). Chalcone 4 and compound (1) were dissolved in AOO and administered topically 2 h before each MC903 application. MC903 was dissolved in EtOH and topically applied.
FIG. 2B. Increase in ear thickness over time (D1-D13) was determined with a caliper on animals treated with MC903 or solvent (EtOH), and compound (1) or solvent (AOO) as described for FIG. 2A. Data points are means and bars are S.E.M. values of n=6 determinations.
FIG. 2C. Increase in ear thickness over time (D1-D13) was determined with a caliper on animals treated with MC903 or solvent (EtOH) and […] or solvent (AOO). Data points are means and bars are S.E.M. values of n=6 determinations.
The in vivo activity of compound (1) was tested in a murine model of atopic dermatitis as previously described (Zhang et al, Proc Nat Acad Si USA 2009, 106, 1536-41). Briefly, Balb/c mice were topically administered with a vitamin D analogue, MC903 (2 or 4 nmol/ear) every other day for 13 days. […]

[5] = vs SuHx rats treated with vehicle or chalcone-4

## COc1cc(/C=C/C(=O)c2ccc(Cl)cc2)ccc1O [Chalcone-4, (E)-1-(4-Chlorophenyl)-3-(4-hydroxy-3-methoxyphenyl)prop-2-en-1-one, reference compound]
[1]
  Stability PBS/Cdx: 100%
  Stability PBS: 100%
[2]
  Inhibition of neutrophil recruitment: 30%
[3]
  Pulmonary vascular remodeling: substantially attenuated the pulmonary vascular remodeling
  Total pulmonary vascular resistance (TPVR): substantial decrease
[4]
  Atopic response to MC903 (ear thickness): totally abolished the atopic response to MC903

## COc1cc(-c2cc(-c3ccc(Cl)cc3)nc(=O)[nH]2)ccc1O [compound (1), 4-(4-Chlorophenyl)-6-(4-hydroxy-3-methoxyphenyl)pyrimidin-2(1H)-one]
[1]
  Stability PBS/Cdx: 100%
  Stability PBS: 100%
[2]
  Inhibition of neutrophil recruitment: 43%
[3]
  Pulmonary vascular remodeling: substantially attenuated the pulmonary vascular remodeling
  Total pulmonary vascular resistance (TPVR): substantial decrease
[3]; [5]
  Cardiac output: substantial increase
  Fulton index (right ventricular hypertrophy): significant decrease
[4]
  Atopic response to MC903 (ear thickness): inhibits atopic dermatitis induced by MC903; also recorded: totally abolished the atopic response to MC903
